The text below walks through data of patent US8163924B2, “Process for preparing a leukotriene antagonist and an intermediate thereof” (Moehs Ibérica, S.L., priority 2007, dated 2012).

Counter-ions that a name gives are not always drawn.

The nature of the data set: Solubility of dicyclohexylamine salts: amounts of solvents needed to dissolve each compound at reflux. Format: physicochemical. To be noted: amounts approximate, same quantity of each compound.

From the text: In particular, the amounts of solvents needed to dissolve each compound at reflux are provided.
The amounts of solvents needed to dissolve the salts are approximate.

As for `CC(=O)c1ccccc1CC[C@@H](SCC1(CC(=O)O)CC1)c1cccc(/C=C/c2ccc3ccc(Cl)cc3n2)c1` [IIa, (R)-(E)-1-(((1-(3-(2-(7-chloro-2-quinolinyl)ethenyl)phenyl)-3-(2-acetylphenyl)propyl)thio)methyl)cyclopropane acetic acid dicyclohexylamine salt], the “amount of solvent needed to dissolve the compound at reflux” value is, setting by setting: (acetone) 100 volumes acetone; (isopropyl acetate) 45 volumes isopropyl acetate.
In the same order, the values of `COC(=O)c1ccccc1CC[C@@H](SCC1(CC(=O)O)CC1)c1cccc(/C=C/c2ccc3ccc(Cl)cc3n2)c1` [R = —CO2CH3] are 50 volumes acetone and 20 volumes isopropyl acetate.
